This test addresses T1, CCR4 (Homo sapiens, UniProt P51679).
T1 construct: CEM Cells Endogenous Express CCR4; endogenous in cells; host or cells: CEM cells
T1 sequence (P51679 1-360): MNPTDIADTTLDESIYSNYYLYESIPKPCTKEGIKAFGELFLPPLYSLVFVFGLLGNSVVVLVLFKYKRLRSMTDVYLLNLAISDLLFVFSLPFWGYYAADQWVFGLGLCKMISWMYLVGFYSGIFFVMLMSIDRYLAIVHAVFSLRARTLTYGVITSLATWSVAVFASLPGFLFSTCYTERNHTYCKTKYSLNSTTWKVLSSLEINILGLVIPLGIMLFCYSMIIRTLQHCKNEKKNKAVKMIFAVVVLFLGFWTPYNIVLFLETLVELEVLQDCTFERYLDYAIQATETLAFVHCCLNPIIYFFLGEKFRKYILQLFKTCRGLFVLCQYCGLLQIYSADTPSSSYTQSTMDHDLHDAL
In words: CEM cell chemotaxis (migration) assay to CCL22 (MDC) in 100% Fetal Bovine Serum (FBS). In kind it is cell-based. As to conditions: CEM cells in 100% FBS with 1% HEPEs; recombinant human CCL22 0.1 nM; 37° C. 60 minutes. An excerpt: CEM Cells Endogenous Express CCR4
A chemotaxis assay can be used to determine the efficacy of potential receptor antagonists at blocking the migration mediated through chemokine receptors, such as CCR4. This assay is routinely performed using the ChemoTX® microchamber system with a 5 μm pore-sized polycarbonate membrane.
FBS: CEM Cells are collected by centrifugation at 400×g at room temperature, then suspended at 5 million/ml in 100% Fetal Bovine Serum (FBS) with 1% HEPEs. The compound being tested is serially diluted from a maximum final concentration of 10 μM (or an equivalent volume of its solvent (DMSO)) and is then added to the cell/buffer mixture. Separately, recombinant human CCL22 (MDC) at its EC50 concentration (0.1 nM) is placed in the lower wells of the ChemoTX® plate. The 5-μm (pore size) polycarbonate membrane was placed onto the plate, and 20 μL of the cell/compound mixture is transferred onto each well of the membrane. The plates are incubated at 37° C. for 60 minutes, after which the polycarbonate membranes are removed and 5 μl of the DNA-intercalating dye CyQUANT (Invitrogen, Carlsbad, CA) is added to the lower wells. The amount of fluorescence, corresponding to the number of migrated cells, is measured using a Spectrafluor Plus plate reader (TECAN, San Jose, CA).
For orientation: IC50 means the midpoint of a concentration-inhibition curve. For the compound `C[C@@H](Nc1nc(C2CCN(C(=O)[C@H]3CCC(=O)N3)CC2)ncc1Cl)c1ccc(Cl)cc1Cl` [Example 1.160], the IC50 is greater than 1000 nM.

In the case of `COc1cnc(N2CCN(C(=O)C[C@@H]3CCCN3C)CC2)nc1N[C@H](C)c1ccc(Cl)cc1Cl` [Example 1.168], the IC50 is less than 100 nM.

Turning to `C[C@@H](Nc1nc(N2CCC([C@@H]3CCCN(CCC(=O)O)C3)CC2)ncc1Cl)c1ccc(Cl)cc1Cl` [Example 1.220], the IC50 is less than 100 nM.

As to `C[C@@H](Nc1nc(N2CCN(C(=O)[C@H]3CCCN3)CC2)ncc1OCC(F)(F)F)c1ccc(Cl)cc1Cl` [Example 1.108], the IC50 is less than 100 nM.

On to `C[C@@H](Nc1nc(N2CCN(C(=O)[C@H]3CNCC(=O)N3)CC2)ncc1Cl)c1ccc(Cl)cc1Cl` [Example 1.129], for which the IC50 was less than 100 nM.

Take `C[C@@H](Nc1nc(N2CCN(C(=O)CCN3CCCC3)CC2)ncc1Cl)c1ccc(Cl)cc1Cl` [Example 1.185]: the IC50 was less than 100 nM.

Take `Cc1cc(Cl)ccc1[C@@H](C)Nc1nc(N2CCN(C(=O)[C@H]3CCC(=O)N3)CC2)ncc1F` [Example 1.089]: the IC50 is 100 to 1000 nM.

Take `C[C@@H](Nc1nc(N2CCN(C(=O)[C@H]3CCC(=O)N3)[C@H](CO)C2)ncc1Cl)c1ccc(Cl)cc1Cl` [Example 1.109]: the IC50 was less than 100 nM.

Regarding `C[C@@H](Nc1nc(N2CCC(C3CCCN(CCC(N)=O)C3)CC2)ncc1Cl)c1ccc(Cl)cc1Cl` (stereo partly drawn) [Example 1.127], the IC50 is less than 100 nM.

With `C[C@@H](Nc1nc(N2CC[C@H](NC(=O)[C@H]3CN(C)C(=O)N3)[C@@H](O)C2)ncc1Cl)c1ccc(Cl)cc1Cl` [Example 1.218], the IC50 is greater than 1000 nM.

`C[C@@H](Nc1nc(N2CCN(C(=O)C3(N)COC3)CC2)ncc1Cl)c1ccc(Cl)cc1Cl` [Example 1.212]: the IC50 was greater than 1000 nM.

As to `C[C@@H](Nc1nc(N2CCN(C(=O)[C@H]3CCCN3)CC2)ncc1OC(F)F)c1ccc(Cl)cc1Cl` [Example 1.172], the 50% inhibitory concentration (IC50) was less than 100 nM.

In the case of `C[C@@H](Nc1nc(N2CCN(C(=O)[C@@H]3CCC(=O)N3)CC2)ncc1Cl)c1ccc(Cl)cc1Cl` [Example 1.144], the IC50 was in the range of 100 to 1000 nM.

With `C[C@@H](Nc1nc(N2CCC(O[C@@H]3CNC[C@@H]3F)CC2)ncc1Cl)c1ccc(Cl)cc1Cl` [Example 1.190], the concentration for half-maximal inhibition (IC50) was less than 100 nM.

For `COc1cnc(N2CCN(C(=O)[C@H]3CCCN3)CC2)nc1N[C@H](C)c1ccc(Cl)cc1Cl` [Example 1.197], the IC50 was less than 100 nM.

For the compound `C[C@@H](Nc1nc(N2CC[C@H](NC(=O)[C@H]3CCCCN3)[C@@H](O)C2)ncc1Cl)c1ccc(Cl)cc1Cl` [Example 1.124], the IC50 was less than 100 nM.

Turning to `C[C@@H](Nc1nc(N2CCC([C@H]3CCCN(CCC(=O)O)C3)CC2)ncc1Cl)c1ccc(Cl)cc1Cl` [Example 1.221], the IC50 is less than 100 nM.

Consider `C[C@@H](Nc1nc(C2=CCN(C(=O)[C@H]3CCC(=O)N3)CC2)ncc1Cl)c1ccc(Cl)cc1Cl` [Example 1.162], for which the IC50 is less than 100 nM.

In the case of `C[C@@H](Nc1nc(N2CCN(C(=O)[C@H]3CCC(=O)N3C)CC2)ncc1Cl)c1ccc(Cl)cc1Cl` [Example 1.239], the concentration for half-maximal inhibition (IC50) is less than 100 nM.

For the compound `CCOc1cnc(N2CCN(C(=O)CCN(C)C)CC2)nc1N[C@H](C)c1ccc(Cl)cc1Cl` [Example 1.183], the IC50 was less than 100 nM.

On to `C[C@@H](Nc1nc(N2CCN(C(=O)C(N)(CO)CCl)CC2)ncc1Cl)c1ccc(Cl)cc1Cl` (stereo partly drawn) [Example 1.126], for which the IC50 fell in the range of 100 to 1000 nM.

Consider `C[C@H]1CC[C@H](C(=O)N[C@H]2CCN(c3ncc(OC(F)F)c(N[C@H](C)c4ccc(Cl)cc4Cl)n3)C[C@@H]2O)N1` [Example 1.119], for which the IC50 is less than 100 nM.

With `C[C@@H](Nc1nc(N2CCC(N(CCC(=O)O)C(=O)[C@H]3CCCN3)CC2)ncc1Cl)c1ccc(Cl)cc1Cl` [Example 1.141], the IC50 was greater than 1000 nM.

As to `C[C@@H](Nc1nc(N2CCC(O[C@H]3CCN(C)C3)CC2)ncc1Cl)c1ccc(Cl)cc1Cl` [Example 1.178], the IC50 was less than 100 nM.

Turning to `COc1cnc(N2CCN(C(=O)C[C@@H]3CCCN3)CC2)nc1N[C@H](C)c1ccc(Cl)cc1Cl` [Example 1.177], the IC50 was less than 100 nM.

As for `C[C@@H](Nc1nc(N2CCN(C(=O)[C@H]3CCN(C)C3)CC2)ncc1C#N)c1ccc(Cl)cc1Cl` [Example 1.243], the IC50 was less than 100 nM.

On to `C[C@@H](Nc1nc(N2CCN(C(=O)[C@H]3CCC(=O)N3)CC2)ncc1C1CC1)c1ccc(Cl)cc1Cl` [Example 1.098], for which the IC50 was in the range of 100 to 1000 nM.

Regarding `C[C@@H]1CN(c2ncc(Cl)c(N[C@H](C)c3ccc(Cl)cc3Cl)n2)CCN1C(=O)[C@H]1CN(C)C(=O)N1` [Example 1.104], the IC50 was less than 100 nM.

Take `COC[C@@H](N)C(=O)N1CCN(c2ncc(Cl)c(N[C@H](C)c3ccc(Cl)cc3Cl)n2)CC1` [Example 1.215]: the IC50 was 100 to 1000 nM.

In the case of `C[C@@H](Nc1nc(N2CCN(C(=O)[C@H]3CC(=O)N3)CC2)ncc1Cl)c1ccc(Cl)cc1Cl` [Example 1.232], the IC50 is 100 to 1000 nM.

With `C[C@@H](Nc1nc(N2CCN(C(=O)[C@H]3CCCN3)CC2)ncc1O)c1ccc(Cl)cc1Cl` [Example 1.167], the IC50 was less than 100 nM.

In the case of `C[C@@H](Nc1nc(N2CCN(C(=O)[C@H]3CCC(=O)N3)[C@@H](CO)C2)ncc1Cl)c1ccc(Cl)cc1Cl` [Example 1.111], the IC50 is less than 100 nM.

As for `COc1cnc(N2CCN(C(=O)[C@H]3CN(C)C(=O)N3)CC2)nc1N[C@H](C)c1ccc(Cl)cc1Cl` [Example 1.096], the IC50 is less than 100 nM.

On to `C[C@@H](Nc1nc(N2CCN(C(=O)C[C@@H]3CCCN3)CC2)ncc1Cl)c1ccc(Cl)cc1Cl` [Example 1.180], for which the 50% inhibitory concentration (IC50) is less than 100 nM.

Take `CO[C@H]1CN(c2ncc(Cl)c(N[C@H](C)c3ccc(Cl)cc3Cl)n2)CC[C@@H]1NC(=O)[C@H]1CCCN1` [Example 1.242]: the IC50 is less than 100 nM.

For `C[C@@H]1CC[C@H](C(=O)N[C@H]2CCN(c3ncc(Cl)c(N[C@H](C)c4ccc(Cl)cc4Cl)n3)C[C@@H]2O)N1` [Example 1.248], the IC50 was less than 100 nM.

For `C[C@@H](Nc1nc(N2CCN(C(=O)[C@H]3CCCN3CCC(F)(F)F)CC2)ncc1Cl)c1ccc(Cl)cc1Cl` [Example 1.219], the IC50 was in the range of 100 to 1000 nM.

In the case of `CC(=O)N1CCC[C@@H]1C(=O)N1CCN(c2ncc(Cl)c(N[C@H](C)c3ccc(Cl)cc3Cl)n2)CC1` [Example 1.237], the IC50 is 100 to 1000 nM.

`C[C@@H](Nc1nc(N2CC[C@H](N(C)C(=O)[C@H]3CCCN3)[C@@H](O)C2)ncc1Cl)c1ccc(Cl)cc1Cl` [Example 1.194]: the IC50 fell in the range of 100 to 1000 nM.

Consider `C[C@@H](Nc1nc(N2CCN(C(=O)[C@H]3CCC(=O)N3)CC2)nc(C(F)(F)F)c1Cl)c1ccc(Cl)cc1Cl` [Example 1.261], for which the IC50 was less than 100 nM.

As to `C[C@@H](Nc1nc(N2CCC(O[C@H]3CCNC3)CC2)ncc1Cl)c1ccc(Cl)cc1Cl` [Example 1.230], the half-inhibitory concentration (IC50) is less than 100 nM.

On to `COCc1cnc(N2CCN(C(=O)[C@H]3CCC(=O)N3)CC2)nc1N[C@H](C)c1ccc(Cl)cc1Cl` [Example 1.102], for which the IC50 is less than 100 nM.

In the case of `C[C@@H](Nc1nc(N2CCN(C(=O)c3cn(C)cn3)CC2)ncc1Cl)c1ccc(Cl)cc1Cl` [Example 1.217], the IC50 lay within 100 to 1000 nM.

For the compound `C[C@H](Nc1nc(N2CCN(C(=O)[C@H]3CCC(=O)N3)CC2)ncc1Cl)c1ncc(Cl)cc1Cl` [Example 1.255], the IC50 was less than 100 nM.

As for `COc1cnc(N2CCN(C(=O)CCN(C)C)CC2)nc1N[C@H](C)c1ccc(Cl)cc1Cl` [Example 1.187], the half-inhibitory concentration (IC50) is less than 100 nM.

The record behind these values is patent US20230382894A1, “CCR4 ANTAGONISTS” (CHEMOCENTRYX, INC., priority 2022, published 2023).
